Counter-ions that a name gives are not always drawn. Like-named read-outs stand apart in the source and are kept apart here.
Legend:
Format in all cases: cell-based
[1] = tested on: SARS-CoV-2 Delta variant (SEQ203); conditions: for % inhibition Vero E6 Delta MOI 0.0001 / % inhibition Vero E6 Delta MOI 0.01: at MNCC, 48 h; for % inhibition Vero E6 Delta MOI 0.0001: 1x; for % inhibition Vero E6 Delta MOI 0.01: mean 2x
[2] = tested on: SARS-CoV-2 A2.5 variant (M2169); conditions: at MNCC, […], 48 h, 1x
[3] = tested on: SARS-CoV-2 A2.5 variant (M2169); conditions: at MNCC; […]; 48 h; mean 2x
[4] = tested on: SARS-CoV-2 Delta variant (SEQ203); conditions: at MNCC, 48 h, 1x

Row | Compound | % inhibition Vero E6 Delta MOI 0.0001 [1] | % inhibition Vero E6 Delta MOI 0.01 [1] | % inhibition Vero E6 A2.5 MOI 0.01 [2] | % inhibition Calu-3 A2.5 MOI 0.01 [3] | % inhibition Calu-3 Delta MOI 0.01 [4] | % inhibition Vero E6 A2.5 MOI 0.01 ([2]; listed as IVM-li) | % inhibition Calu-3 Delta MOI 0.01 ([4]; listed as IVM-l) | antiviral inhibition at MOI = 0.00001 [1] | % inhibition Calu-3 Delta MOI 0.01 ([4]; listed as AS) | viral inhibition, secondary screening, Delta [1]
1 | C=C[C@H]1C[N@@]2CC[C@H]1C[C@H]2[C@H](O)c1ccnc2ccc(OC)cc12 [Quinine Sulfate (QN), Quinine Sulfate] | 0% | 9% | 18% | 0% |  |  |  |  |  | 
2 | C[C@H]1[C@@H](OCc2ccc(C(=O)O)cc2)O[C@@H]2O[C@@]3(C)CC[C@H]4[C@H](C)CC[C@@H]1[C@@]24OO3 [Artelinic Acid (AA), Artelinic Acid] | 0% | 5% | 0% | 14% | 7% |  |  |  |  | 
3 | CN(C)c1ccc2nc3ccc(=[N+](C)C)cc-3sc2c1 [Methylene Blue Injection (MBi), Methylene Blue] | 16% | 10% | 2% | 18% |  |  |  |  |  | 
4 | O=C(Nc1cccc(C2=NCCN2)c1)Nc1cccc(C2=NCCN2)c1 [Imidocarb (IMI), Imidocarb] | 0% | 11% |  | 14% | 16% |  |  |  |  | 
5 | CCCCN(CCCC)CC(O)c1cc(Cl)cc2c1-c1ccc(Cl)cc1/C2=C/c1ccc(Cl)cc1 (stereo not drawn) [Lumefantrine (LUM), Lumefantrine] | 0% | 14% |  | 19% |  |  |  |  |  | 
6 | Ivermectin [Ivermectin Liquida (IVM-li)] | 0% | 15% | 52% |  | 45% | ≥ 20% | ≥ 20% |  |  | 
7 | CN(C)C(=O)COC(=O)Cc1ccc(OC(=O)c2ccc(NC(=N)N)cc2)cc1 [Camostat mesylate (CAM), Camostat mesylate] | 0% | 7% | 2% | 16% | 4% |  |  |  |  | 
8 | Ferroquine [Ferroquine (FQ)] | 23% | 7% | 12% |  | 4% |  |  |  |  | 
9 | CCN(CC)Cc1cc(Nc2ccnc3cc(Cl)ccc23)ccc1O [Amodiaquine (AQ), Amodiaquine] | 42% | 11% | showed activity | showed activity |  |  |  | ≥ 20% |  | 
10 | OC(c1cc(C(F)(F)F)nc2c(C(F)(F)F)cccc12)C1CCCCN1 (stereo not drawn) [Mefloquine (MQ), Mefloquine] | 45% | 6% | 16% | 8% | 0% |  |  | ≥ 20% |  | 
11 | CCc1nc(N)nc(N)c1-c1ccc(Cl)cc1 [Pyrimethamina (PYR), Pyrimethamina] | 34% | 9% | 0% | 0% | 3% |  |  | ≥ 20% |  | 
12 | COc1c(C)c2c(c(O)c1C/C=C(\C)CCC(=O)O)C(=O)OC2 [Mycophenolic acid (MYC), Mycophenolic acid] | 40% | 7% | 0% | 11% | 5% |  |  | ≥ 20% |  | 
13 | NC(=O)c1ncn([C@@H]2O[C@H](CO)[C@@H](O)[C@H]2O)n1 [Ribavirin (RIB), Ribavirin] | 44% | 8% | 9% | 11% | -6% |  |  | ≥ 20% |  | 
14 | COc1ccc2nc3cc(Cl)ccc3c(Nc3cc(CN4CCCC4)c(O)c(CN4CCCC4)c3)c2n1 [Pyranoridine (PNO), Pyranoridine] | 43% | 6% | 0% | 1% | -1% |  |  | ≥ 20% |  | 
15 | CC[C@H]1OC(=O)[C@H](C)[C@@H](O[C@H]2C[C@@](C)(OC)[C@@H](O)[C@H](C)O2)[C@H](C)[C@@H](O[C@@H]2O[C@H](C)C[C@H](N(C)C)[C@H]2O)[C@](C)(O)C[C@@H](C)CN(C)[C@H](C)[C@@H](O)[C@]1(C)O [Azithromycin dehydrate (AZH), Azithromycin dehydrate] | 25% | 8% | 0% | 19% | 2% |  |  | ≥ 20% |  | 
16 | C[C@H]1[C@H](N2CCS(=O)(=O)CC2)O[C@@H]2O[C@@]3(C)CC[C@H]4[C@H](C)CC[C@@H]1[C@@]24OO3 [Artemisone (ASO), Artemisone] | 15% | 10% | showed activity |  | 16% |  |  |  |  | 
17 | CN1CCN(CCCN2c3ccccc3Sc3ccc(Cl)cc32)CC1 [Prochlorperazine (PCPZ), Prochlorperazine] | 6% | 6% | 0% | 16% | 0% |  |  |  |  | 
18 | CCN(CCO)CCCC(C)Nc1ccnc2cc(Cl)ccc12 (stereo not drawn) [Hydroxychloroquine Minsa (HCQ-m), Hydroxychloroquine] | 43% | 18% | 0% |  |  |  |  |  |  | 
19 | C[C@H]1[C@H](OC(=O)CCC(=O)O)O[C@@H]2O[C@@]3(C)CC[C@H]4[C@H](C)CC[C@@H]1[C@@]24OO3 [Artesunic acid (AS), Artesunic acid] | 37% | 18% | 45% |  | 42% |  |  |  | effective | 
20 | COc1cc(C)c2c(Oc3cccc(C(F)(F)F)c3)c(OC)cc(NC(C)CCCN)c2n1 (stereo not drawn) [TQ, tafenoquine] |  |  |  |  |  |  |  |  |  | at least 20%
21 | Ivermectin [Ivermectin Farmacia (IVM-f)] | 44% | 5% |  | 16% | 5% |  |  | ≥ 20% |  | 
22 | CCO[C@H]1O[C@@H]2O[C@@]3(C)CC[C@H]4[C@H](C)CC[C@@H]([C@H]1C)[C@@]24OO3 [Arteether (AE), Arteether] | 23% | 8% | 10% | showed activity | 5% |  |  | ≥ 20% |  | 
